“And” between values parts separate entries of the source, which are not always exact repeats. Equal values may be shown once.
Legend:
acne-affected skin = assay: Topical treatment of acne in human volunteers; assay type: in vivo
Description: In this example, human subjects were successfully treated for acne by topical administration of a cream containing the compound ASC-J15 or ASC-J9, which were shown in the previous examples to ameliorate the effects of the androgen receptor-activated pathway, specifically by inducing degradation of the androgen receptor. A basic carrier formulation was prepared by mixing two solutions: (1) a water-based solution containing aristoflex avc, Osmocide, Tween 20, and water; and (2) an oil-based solution containing isopropyl myristate, coconut dienthanolamine, ethylparaben, isobutylparaben, methylparaben, and propylparaben. […]
Male and female human volunteers ranging in age from 15 years to 52 years were treated by topical application of the test compounds to the acne-affected skin. Subjects were asked to apply the cream to the acne-affected areas twice a day (once in the morning and once in the evening). […] The results are given in Table 2, and a representative result (photo pictures) from one volunteer is depicted in FIG. 14. FIG. 14A depicts the volunteer's forehead and FIG. 14B depicts the volunteer's back.

[1] = test system: ER beta, PPARα, β or γ, RXRα, hsp70, actin; assay: Specificity Western blot in LNCaP cell lysates, other nuclear receptors or proteins; assay type: cell-based, human; details: 1 or 5 micromolar, 24 hours, presence or absence of DHT
Description: Human prostate cancer LNCaP cells and T47D cells were plated at a density of 7×10^5 cells per 60 millimeter tissue culture dish in […] medium containing 10% FBS. The medium was changed to RPMI or DME medium containing 10% charcoal-stripped serum 24 hours later to deplete cellular androgens or estrogens. After another 24 hours, treatment with the test compounds began. The test dose of ASC-J9 was 1, and 5 and micromolar. LNCap cells also received dihydrotestosterone (DHT) (3 nanomolar). Control cells received a corresponding amount of the vehicle, dimethylsulfoxide (DMSO) (<0.04%) for an equivalent exposure time. Cells were incubated with ASC-J9 for 24 hours, and were lysed in 250 microliters of 1×SDS/PAGE loading buffer. Approximately 40 micrograms of total cellular protein was loaded in each lane of a pre-cast gel (NuPAGE, Invitrogen). Protein separation and transfer were performed following the manufacturer's instructions.
For the LNCaP cell lysates, androgen receptor (AR) protein was visualized by incubating the resultant membranes with an anti-AR antibody (BD-PharMingen), followed by chemiluminescence detection (ECL Plus, Amersham). […] The resultant protein signals were quantified using densitometry and NIH ImageJ software.

Q: With `COc1ccc(C=CC(=O)C=C(O)C=Cc2ccc(OC)c(OC)c2)cc1OC` [ASC-J9, 5-hydroxy-1,7-bis(3,4-dimethoxyphenyl)-1,4,6-heptatrien-3-one] as the compound, how does the “Recovery Time” value (acne-affected skin; topical cream 1 micromolar, one line per subject (age, sex, frequency in Table 2)) read?
A: 2 weeks and 1 week weeks

Q: What about the “Recovery Time” value (acne-affected skin; topical cream 2.5 micromolar, twice a day, subject 24) of the same compound?
A: 1 week

Q: What about the “skin condition of acne-affected male volunteers (photographs)” value (acne-affected skin; topical, 2.5 micromolar forehead (FIG. 14A), 625 μM back (FIG. 14B)) of the same compound?
A: visible improvement to skin condition

Q: And the “other tested nuclear receptors or proteins” value [1]?
A: did not substantially affect
